From paper PMC6164518 (Marine Drugs, 2018) come the findings set out here.

The target in one series is T1, equine serum BChE (Equus caballus, UniProt P81908).
T1 construct: purchased Sigma-Aldrich (Steinheim, Germany); host or cells: equine serum
As to the kind of experiment: biochemical. As to conditions: BChE from equine serum; mean ± SD from three separate experiments; read-out: IC50 eqBChE. The protocol: (§1) The AChE and BChE inhibitory activities of compounds were determined by using a slightly modified Ellman’s method. Electric eel AChE, equine serum BChE, 5,5′-dithiobis(2-nitrobenzoic acid) (DTNB), phosphate buffer solution (PBS, pH 8.0), acetylthiocholine (ATC) iodide, and butyrylthiocholine (BUC) iodide were purchased from Sigma-Aldrich (Steinheim, Germany). […] Enzyme solutions were prepared at 2.0 U/mL in 2-mL aliquots. The assay medium consisted of 10 μL of enzyme, 40 μL of PBS, 20 μL of 0.01 M DTNB, and 10 μL of tested compound. Assayed solutions of tested compounds were pre-incubated with corresponding ChE for 5 min. The reaction was initiated by the addition of 20 μL of 0.01 M substrate (ATC or BUC). The activity was determined by measuring the increase in absorbance at 410 nm at 37 °C in 2-min intervals using Tecan Spark multimode microplate reader (Mannedorf, Switzerland). The percentage of inhibition (I) was calculated from the measured data as follows: I = (Ac − Ai)/Ac × 100%, where Ai and Ac represent the change in the absorbance in the presence of an inhibitor and without an inhibitor, respectively.

For the next series, the target named is T2, Electric eel AChE (Electrophorus electricus, UniProt O42275).
T2 construct: purchased Sigma-Aldrich (Steinheim, Germany)
T2 sequence (O42275 24-633): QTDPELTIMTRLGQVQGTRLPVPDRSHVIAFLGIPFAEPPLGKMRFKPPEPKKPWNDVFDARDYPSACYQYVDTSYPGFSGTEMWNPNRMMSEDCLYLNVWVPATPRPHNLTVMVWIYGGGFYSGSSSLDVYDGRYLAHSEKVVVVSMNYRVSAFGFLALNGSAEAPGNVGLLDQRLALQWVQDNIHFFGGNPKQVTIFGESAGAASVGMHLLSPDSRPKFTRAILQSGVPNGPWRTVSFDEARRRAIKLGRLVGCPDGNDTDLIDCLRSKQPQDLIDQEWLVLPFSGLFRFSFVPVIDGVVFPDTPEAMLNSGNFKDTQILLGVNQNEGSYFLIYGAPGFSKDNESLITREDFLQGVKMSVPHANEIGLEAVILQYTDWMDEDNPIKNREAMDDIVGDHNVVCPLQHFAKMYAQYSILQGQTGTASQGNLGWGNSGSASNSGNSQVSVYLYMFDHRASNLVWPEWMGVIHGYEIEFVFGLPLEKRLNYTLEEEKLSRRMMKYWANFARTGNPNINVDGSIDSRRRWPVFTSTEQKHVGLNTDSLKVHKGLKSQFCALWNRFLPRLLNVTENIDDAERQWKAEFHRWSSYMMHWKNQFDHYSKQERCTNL
Put plainly: biochemical. The following applies: AChE from electric eel; mean ± SD from three separate experiments; read-out: IC50 EeAChE. Here is the method: as §1

For another series, the target named is T3, Aβ1–42 (Homo sapiens, UniProt P05067).
T3 construct: pre-treated Aβ1–42 (GL Biochem Ltd., Shanghai, China) was dissolved in DMSO; purchased GL Biochem Ltd., Shanghai, China
T3 sequence (P05067 672-713 limits assumed): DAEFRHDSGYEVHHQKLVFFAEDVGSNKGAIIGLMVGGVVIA
As to the kind of experiment: Inhibition of self-induced Aβ1–42 aggregation (ThT fluorescence). The format is biochemical. As to conditions: Aβ1–42 2.5 µM, compound 10 µM, mean ± SD of three experiments. Here is the method: In order to investigate the inhibition of compounds on Aβ1–42 self-aggregation, a ThT-based fluorometric assay was performed. 1,1,1,3,3,3-hexafluoro-2-propanol (HFIP) pre-treated Aβ1–42 (GL Biochem Ltd., Shanghai, China) was dissolved in DMSO to make a 200 µM stock solution. The stock solution was centrifuged at the speed of 13,500 rpm for 10 min. The above supernatant was used for experiments. The tested compounds were dissolved in DMSO at concentrations of 0.8 mM. A screening assay for the tested compounds to inhibit A aggregation was performed by measuring ThT fluorescence emission. Compounds (2 µL) and 2 µL of 200 µM Aβ1–42 were added into 76 µL of phosphate-buffered saline (PBS at pH 7.4) in a 96-well plate. After incubation for 24 h at room temperature, 80 µL of 5 µM of ThT solution (in 50 mM of glycine-NaOH at pH 8.5) was added to the reaction solution. Fluorescence emission was measured at 490 nm with an excitation wavelength of 450 nm on a Tecan Spark multimode microplate reader. […] The fluorescence intensities were compared, and the % inhibition was calculated by the following equation: 100 − [(Fi − Fb)/(Fo − Fb) × 100], where Fi, Fo and Fb are the fluorescence intensities obtained for Aβ aggregation in the presence of inhibitors Aβ1–42 and ThT; in the presence of Aβ1–42 and THT but no inhibitors; and the blanks containing ThT only.

A short description of another series: in vitro. As to conditions: human. Here is the method: Thus, to verify the hepatotoxicity of 1 and 12j, a 3-(4,5-dimethylthiazol-2-yl)-2,5-diphenyltetrazolium bromide (MTT) assay on the human hepatoma cell line (HepG2) was carried out.
The cytotoxicity of selected compounds was evaluated on HepG2 cells. Cells were inoculated into 96-well plates. After incubation for 24 h, the cells were treated with different concentrations of tested compounds for 24 h, and then were incubated with 10 μL of 3-(4,5-dimethylthiazol-2-yl)-2,5-diphenyltetrazolium bromide (MTT) at 37 °C for 2 h. The formazan dye product was measured by the absorbance at 490 nm on a Tecan Spark multimode microplate reader.

T1 sequence (P81908 whole entry): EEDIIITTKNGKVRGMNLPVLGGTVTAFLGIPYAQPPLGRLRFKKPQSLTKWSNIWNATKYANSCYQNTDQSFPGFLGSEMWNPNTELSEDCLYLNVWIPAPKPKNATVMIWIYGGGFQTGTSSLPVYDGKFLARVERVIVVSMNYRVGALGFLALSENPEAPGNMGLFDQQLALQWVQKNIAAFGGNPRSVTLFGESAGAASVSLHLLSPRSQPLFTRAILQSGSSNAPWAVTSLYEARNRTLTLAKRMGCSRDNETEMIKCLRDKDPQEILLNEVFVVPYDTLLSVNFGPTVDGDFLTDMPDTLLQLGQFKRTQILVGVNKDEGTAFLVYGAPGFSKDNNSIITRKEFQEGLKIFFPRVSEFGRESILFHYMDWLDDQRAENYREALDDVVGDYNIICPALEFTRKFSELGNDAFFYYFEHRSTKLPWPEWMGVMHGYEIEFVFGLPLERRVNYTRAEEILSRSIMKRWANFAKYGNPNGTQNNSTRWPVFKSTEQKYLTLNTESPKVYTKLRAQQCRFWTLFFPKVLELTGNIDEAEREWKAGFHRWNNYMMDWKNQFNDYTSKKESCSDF

As to `O=C(Cc1ccccc1Br)NCCCCCCCNc1c2c(nc3ccccc13)CCCC2` [Compound 12d, 2-(2-Bromophenyl)-N-(7-((1,2,3,4-tetrahydroacridin-9-yl)amino)heptyl)acetamide], the IC50 amounted to 91 ± 17 nM on equine serum BChE and 304 ± 4 nM on Electric eel AChE.
Regarding `O=C(Cc1ccccc1)NCCCCCCCNc1c2c(nc3ccccc13)CCCC2` [Compound 12l, 2-Phenyl-N-(7-((1,2,3,4-tetrahydroacridin-9-yl)amino)heptyl)acetamide], the values for the 50% inhibitory concentration (IC50) on equine serum BChE and on Electric eel AChE were 680 ± 54 nM and 760 ± 92 nM, respectively.
In the case of `COc1c(Br)cc(CC(=O)NCCCNc2c3c(nc4ccccc24)CCCC3)cc1Br` [Compound 10b, 2-(3,5-Dibromo-4-methoxyphenyl)-N-(3-((1,2,3,4-tetrahydroacridin-9-yl)amino)propyl)acetamide], the IC50 amounted to 233 ± 13 nM at equine serum BChE and 771 ± 27 nM at Electric eel AChE.
With `O=C(Cc1cc(Br)ccc1Br)NCCCCCCCNc1c2c(nc3ccccc13)CCCC2` [Compound 12g, 2-(2,5-Dibromophenyl)-N-(7-((1,2,3,4-tetrahydroacridin-9-yl)amino)heptyl)acetamide], the IC50 was 62 ± 6 nM at equine serum BChE and 696 ± 52 nM on Electric eel AChE.
Taken in the same sequence, the figures for `COc1c(Br)cc(CC(=O)NCCCCCCCCCCNc2c3c(nc4ccccc24)CCCC3)cc1Br` [Compound 10h, 2-(3,5-Dibromo-4-methoxyphenyl)-N-(10-((1,2,3,4-tetrahydroacridin-9-yl)amino)decyl)acetamide] were 516 ± 37 nM and 638 ± 26 nM.
In the same order, the values of `O=C(Cc1cc(Br)cc(Br)c1)NCCCCCCCNc1c2c(nc3ccccc13)CCCC2` [Compound 12h, 2-(3,5-Dibromophenyl)-N-(7-((1,2,3,4-tetrahydroacridin-9-yl)amino)heptyl)acetamide] are 204 ± 11 nM and 729 ± 21 nM.
Taken in the same sequence, the figures for `COc1c(Br)cc(CC(=O)NCCCCCNc2c3c(nc4ccccc24)CCCC3)cc1Br` [Compound 10d, 2-(3,5-Dibromo-4-methoxyphenyl)-N-(5-((1,2,3,4-tetrahydroacridin-9-yl)amino)pentyl)acetamide] were 100 ± 14 nM and 764 ± 16 nM.
For `COc1ccc2c3c1O[C@H]1C[C@@H](O)C=C[C@@]31CCN(C)C2` [Galantamine, reference compound], the “Inhibition of Aβ Aggregation (%) Self-Induced” value is on record as 1.25 ± 0.46% at Aβ1–42 and “no significant inhibition” at Aβ1–42 (listed as galantamine).
On to `COc1ccc(CC(=O)NCCCCCCCNc2c3c(nc4ccccc24)CCCC3)cc1Br` [Compound 12c, 2-(3-Bromo-4-methoxyphenyl)-N-(7-((1,2,3,4-tetrahydroacridin-9-yl)amino)heptyl)acetamide], for which the 50% inhibitory concentration (IC50) was 152 ± 6 nM on equine serum BChE and 607 ± 45 nM on Electric eel AChE.
On to `O=C(Cc1cc(Cl)ccc1Br)NCCCCCCCNc1c2c(nc3ccccc13)CCCC2` [Compound 12k, 2-(2-Bromo-5-chlorophenyl)-N-(7-((1,2,3,4-tetrahydroacridin-9-yl)amino)heptyl)acetamide], for which the IC50 was found to be 104 ± 1 nM at equine serum BChE and 383 ± 54 nM at Electric eel AChE.
In the same order, the values of `COc1c(Br)cc(CC(=O)NCCCCCCCNc2c3c(nc4ccccc24)CCCC3)cc1Br` [Compound 10f, 2-(3,5-Dibromo-4-methoxyphenyl)-N-(7-((1,2,3,4-tetrahydroacridin-9-yl)amino)heptyl)acetamide] are 53 ± 7 nM and 314 ± 10 nM.
In the same order, the values of `COc1c(Br)cc(CC(=O)NCCNc2c3c(nc4ccccc24)CCCC3)cc1Br` [Compound 10a, 2-(3,5-Dibromo-4-methoxyphenyl)-N-(2-((1,2,3,4-tetrahydroacridin-9-yl)amino)ethyl)acetamide] are 230 ± 10 nM and 880 ± 74 nM.
Taken in the same sequence, the figures for `O=C(Cc1cccc(Br)c1)NCCCCCCCNc1c2c(nc3ccccc13)CCCC2` [Compound 12e, 2-(3-Bromophenyl)-N-(7-((1,2,3,4-tetrahydroacridin-9-yl)amino)heptyl)acetamide] were 149 ± 21 nM and 724 ± 3 nM.
As to `COc1c(Br)cc(CC(=O)NCCCCCCCCNc2c3c(nc4ccccc24)CCCC3)cc1Br` [Compound 10g, 2-(3,5-Dibromo-4-methoxyphenyl)-N-(8-((1,2,3,4-tetrahydroacridin-9-yl)amino)octyl)acetamide], the concentration for half-maximal inhibition (IC50) came out at 325 ± 4 nM at equine serum BChE and 427 ± 16 nM on Electric eel AChE.
As for `COc1ccc(CC(=O)NCCCCCCCNc2c3c(nc4ccccc24)CCCC3)cc1` [Compound 12b, 2-(4-Methoxyphenyl)-N-(7-((1,2,3,4-tetrahydroacridin-9-yl)amino)heptyl)acetamide], the IC50 on equine serum BChE amounted to 694 ± 3 nM; at Electric eel AChE it was 750 ± 54 nM.
In the same order, the values of `O=C(Cc1ccc(F)c(Br)c1)NCCCCCCCNc1c2c(nc3ccccc13)CCCC2` [Compound 12i, 2-(3-Bromo-4-fluorophenyl)-N-(7-((1,2,3,4-tetrahydroacridin-9-yl)amino)heptyl)acetamide] are 49 ± 4 nM and 748 ± 17 nM.
In the same order, the values of `O=C(Cc1ccc(Br)cc1)NCCCCCCCNc1c2c(nc3ccccc13)CCCC2` [Compound 12f, 2-(4-Bromophenyl)-N-(7-((1,2,3,4-tetrahydroacridin-9-yl)amino)heptyl)acetamide] are 214 ± 4 nM and 597 ± 28 nM.
In the same order, the values of `COc1c(Br)cc(CC(=O)NCCCCNc2c3c(nc4ccccc24)CCCC3)cc1Br` [Compound 10c, 2-(3,5-Dibromo-4-methoxyphenyl)-N-(4-((1,2,3,4-tetrahydroacridin-9-yl)amino)butyl)acetamide] are 195 ± 11 nM and 1050 ± 161 nM.
As to `Nc1c2c(nc3ccccc13)CCCC2` [Tacrine, reference compound], the half-maximal inhibitory concentration (IC50) at 24 h in “in vitro” turned out to be 38900 ± 530 nM.
For the molecule `COc1ccc(CC(=O)NCCCCCCCNc2c3c(nc4ccccc24)CCCC3)c(Br)c1` [Compound 12a, 2-(2-Bromo-4-methoxyphenyl)-N-(7-((1,2,3,4-tetrahydroacridin-9-yl)amino)heptyl)acetamide], the half-inhibitory concentration (IC50) turned out to be 140 ± 4 nM on equine serum BChE and 324 ± 33 nM at Electric eel AChE.
In the same order, the values of `COc1c(Br)cc(CC(=O)NCCCCCCNc2c3c(nc4ccccc24)CCCC3)cc1Br` [Compound 10e, 2-(3,5-Dibromo-4-methoxyphenyl)-N-(6-((1,2,3,4-tetrahydroacridin-9-yl)amino)hexyl)acetamide] are 54 ± 6 nM and 686 ± 45 nM.
